Data published in publication PMC3310203 (Journal of Medicinal Chemistry, 2012).
“Also recorded” adds a separate entry of the source. Where two headings read alike, the source gives them in different places.

Columns and labels:
[1] = ATZ for comparison, cited from earlier work
HIV-1 protease = HIV-1 protease (Human immunodeficiency virus type 1 group M subtype B, UniProt P04585); experiment: HIV protease inhibition, fluorometric assay; type: biochemical; settings: for Ki: fluorometric assay, pH 5.0, 30 °C, 5 µM substrate
HIV = experiment: In vitro anti-HIV activity in MT4 cells; type: cell-based; settings: for times higher potency than 13a in the cell-based antiviral activity assay: fold versus 13a
Metabolic stability = type: in vitro ADME, human
Caco-2 cell = Caco-2 cell penetration assay; type: in vitro ADME
[2] = p-bromide inhibitors 13a and 19a compared

Structure (SMILES)	activity in the enzyme assay (in words) (HIV-1 protease)	activity in the cell-based antiviral assay (in words) (HIV)	permeability in the Caco-2 study (in words) (Caco-2 cell)	other results
COC(=O)N[C@H](C(=O)N[C@@H](Cc1ccccc1)[C@@H](O)CN(Cc1ccc(-c2ccccn2)cc1)NC(=O)[C@@H](NC(=O)OC)C(C)(C)C)C(C)(C)C [ATZ, Atazanavir]	–	–	–	Clint ([1]; ref 23): 90 μL min^–1 mg^–1; Clint ([1]; ref 64): 140 μL min^–1 mg^–1
COC(=O)N[C@H](C(=O)NN(CC[C@@]1(Cc2ccccc2)C(=O)N([C@H]2c3ccccc3C[C@H]2O[Si](C)(C)C(C)(C)C)C[C@H]1O[Si](C)(C)C(C)(C)C)Cc1ccc(Br)cc1)C(C)(C)C [Compound 12a]	did not show any activity; also recorded: did not show any inhibitory potency	did not show any activity	–	–
COC(=O)N[C@H](C(=O)NN(CC[C@@]1(Cc2ccccc2)C(=O)N([C@H]2c3ccccc3C[C@H]2O[Si](C)(C)C(C)(C)C)C[C@@H]1O[Si](C)(C)C(C)(C)C)Cc1ccc(Br)cc1)C(C)(C)C [Compound 12d]	did not show any activity; also recorded: did not show any inhibitory potency	did not show any activity	–	–
COC(=O)N[C@H](C(=O)NN(CC[C@@]1(Cc2ccccc2)C(=O)N([C@H]2c3ccccc3C[C@H]2O)C[C@H]1O)Cc1ccc(Br)cc1)C(C)(C)C [Compound 13a]	–	–	–	Ki (HIV-1 protease): < 10 nM; EC50 (HIV; Human immunodeficiency virus 1, MT4, antiviral activity, MT4 cells): < 1000 nM; metabolic clearance (in words) (Metabolic stability): High metabolic clearance
COC(=O)N[C@H](C(=O)NN(CC[C@]1(Cc2ccccc2)C(=O)N([C@H]2c3ccccc3C[C@H]2O)C[C@H]1O)Cc1ccc(Br)cc1)C(C)(C)C [Compound 13b]	did not show any activity; also recorded: almost no inhibiting effect	did not show any activity; also recorded: almost no inhibiting effect	–	–
COC(=O)N[C@H](C(=O)NN(CC[C@]1(Cc2ccccc2)C(=O)N([C@H]2c3ccccc3C[C@H]2O)C[C@@H]1O)Cc1ccc(Br)cc1)C(C)(C)C [Compound 13c]	did not show any activity; also recorded: almost no inhibiting effect	did not show any activity; also recorded: almost no inhibiting effect	–	–
COC(=O)N[C@H](C(=O)NN(CC[C@@]1(Cc2ccccc2)C(=O)N([C@H]2c3ccccc3C[C@H]2O)C[C@@H]1O)Cc1ccc(Br)cc1)C(C)(C)C [Compound 13d]	–	–	good results	Ki (HIV-1 protease): < 10 nM; metabolic clearance (in words) (Metabolic stability): High metabolic clearance
COC(=O)N[C@H](C(=O)NN(CC[C@@]1(Cc2ccccc2)C(=O)N([C@H]2c3ccccc3C[C@H]2O)C[C@H]1O)Cc1ccc(-c2cccnc2)cc1)C(C)(C)C [Compound 13g]	–	–	moderate permeability	times higher potency than 13a in the cell-based antiviral activity assay (HIV): 10
COC(=O)N[C@H](C(=O)NN(CC[C@@]1(Cc2ccccc2)C(=O)N([C@H]2c3ccccc3C[C@H]2O)C[C@@H]1O)Cc1ccc(-c2cccnc2)cc1)C(C)(C)C [Compound 13h]	–	–	moderate permeability	–
COC(=O)N[C@H](C(=O)NN(CC[C@@]1(Cc2ccccc2)C(=O)N([C@H]2c3ccccc3C[C@H]2O)C[C@H]1O)Cc1ccc(-c2ccncc2)cc1)C(C)(C)C [Compound 13i]	–	–	–	times higher potency than 13a in the cell-based antiviral activity assay (HIV): 10
COC(=O)N[C@H](C(=O)NN(CCC[C@@]1(Cc2ccccc2)C(=O)N([C@H]2c3ccccc3C[C@H]2O)C[C@H]1O)Cc1ccc(Br)cc1)C(C)(C)C [Compound 19a]	–	–	high permeability	fold loss of potency versus 13a (Ki) (HIV-1 protease; [2]): 5; fold loss of potency versus 13a (EC50) (HIV; [2]): 5
